This note sets out measurements from ChEMBL document CHEMBL4265965, “Dichloroacetophenones targeting at pyruvate dehydrogenase kinase 1 with improved selectivity and antiproliferative activity: Synthesis and structure-activity relationships” (Bioorg Med Chem Lett, 2018).

Activity calls are given as the source filed them. The calls are words filed in the database; no cut-off is given here.

The subject of assay [1] is NCI-H1975. The assay is described as follows: Antiproliferative activity against human NCI-H1975 cells assessed as inhibition of cell proliferation at 12 uM after 72 hrs by MTT assay relative to control. Type of assay: functional. Conditions: NCI-H1975, 72 h.
The subject of assay [2] is A549. The assay is described as follows: Antiproliferative activity against human A549 cells assessed as inhibition of cell proliferation at 12 uM after 72 hrs by MTT assay relative to control. Type of assay: functional. The note with it: A549, 72 h. A general note: Tetrazolium assays rely on reduction of a dye to a coloured formazan, in cell work by metabolically active cells.

In assay [3] the test system is A549. Put plainly: Antiproliferative activity against human A549 cells assessed as inhibition of cell proliferation at 6 uM after 72 hrs by MTT assay relative to control. Conditions: A549, 72 h. Type of assay: functional.
In assay [4] the test system is NCI-H1650. Put plainly: Antiproliferative activity against human NCI-H1650 cells assessed as inhibition of cell proliferation at 12 uM after 72 hrs by MTT assay relative to control. Type of assay: functional. Conditions: for inhibition at 12 µM: NCI-H1650, 72 h.
Assay [5] concerns NCI-H1650. The assay is described as follows: Antiproliferative activity against human NCI-H1650 cells assessed as inhibition of cell proliferation at 6 uM after 72 hrs by MTT assay relative to control. Type of assay: functional. The note with it: for inhibition at 6 µM: NCI-H1650, 72 h.
Assay [6] deals with [Pyruvate dehydrogenase (acetyl-transferring)] kinase isozyme 1, mitochondrial (Homo sapiens, UniProt Q15118). Put plainly: Inhibition of recombinant human N-terminal His6/Sumo-tagged PDK1 (29 to 436 residues) expressed in Escherichia coli BL21 at 1 uM by kinase-glo luminescence assay relative to control. Background: Kinase-Glo reads ATP consumption through a luciferase reaction.

Assay [7] deals with NCI-H1975. The assay is described as follows: Antiproliferative activity against human NCI-H1975 cells assessed as inhibition of cell proliferation at 2 uM after 72 hrs by MTT assay relative to control. The note with it: for inhibition at 2 µM: NCI-H1975, 72 h. Type of assay: functional.
The test system of assay [8] is A549. Put plainly: Antiproliferative activity against human A549 cells assessed as inhibition of cell proliferation at 2 uM after 72 hrs by MTT assay relative to control. Type of assay: functional. The note with it: for inhibition at 2 µM: A549, 72 h.
The subject of assay [9] is NCI-H1975. The assay is described as follows: Antiproliferative activity against human NCI-H1975 cells assessed as inhibition of cell proliferation at 6 uM after 72 hrs by MTT assay relative to control. Type of assay: functional. The note with it: NCI-H1975, 72 h.
Assay [10] concerns NCI-H1650. Put plainly: Antiproliferative activity against human NCI-H1650 cells assessed as inhibition of cell proliferation at 2 uM after 72 hrs by MTT assay relative to control. Type of assay: functional. Conditions: for inhibition at 2 µM: NCI-H1650, 72 h.

In the case of `CCOc1ccc(C(=O)C(Cl)Cl)cc1`, the inhibition (as a rule, the relative decrease from the control value, in per cent) at 12 µM in assay [1] was 98.6%; in [2], 80.9%; in assay [4] it was 90.2%. The inhibition at 6 µM in assay [3] was found to be 31.6%; in assay [5], 50.4%; in [9] it was 89%. Also, the inhibition in assay [6] was in the range of 19.7 to 67.9%. Besides, the inhibition at 2 µM in assay [7] stood at 22.6%; in assay [8], 18.9%; in [10] it was 22.3%.

Regarding `Cc1ccc(C(=O)C(Cl)Cl)cc1[N+](=O)[O-]`, the inhibition at 12 µM in assay [1] stood at 99.7%; in assay [2], 89.5%; in assay [4], 94.6%. For the same molecule, the inhibition at 6 µM in assay [3] is 67.8%; in assay [5] it was 69.8%; in assay [9], 89.5%. The inhibition in assay [6] is 50.5%. The inhibition at 2 µM came out at 15.8% in assay [7], 12.6% in assay [8] and 15.4% in assay [10].

`CCCc1ccc(C(=O)C(Cl)Cl)cc1[N+](=O)[O-]`: the results for the inhibition at 12 µM in assay [1], in [2] and in assay [4] were 99.8%, 65.2% and 99.8%, respectively. Also, the figures for the inhibition at 6 µM in assay [3], in [5] and in assay [9] were 8.9%, 60.2% and 69.5%, respectively. Besides, the inhibition entry in assay [6] and in assay [8] was “inactive” throughout. Further, the inhibition at 2 µM was 31.5% in assay [7] and 29.8% in assay [10].

Take `O=C(c1ccccc1Br)C(Cl)Cl`: the inhibition at 12 µM in assay [1] is 49.5%; in assay [2] it was 17.5%; in assay [4], 0.4%. Further, the inhibition at 6 µM in [3] was found to be 6.1%; in assay [9] it was 14.3%. The inhibition entry in assay [5], in assay [6], in [7] and in [10] was “inactive” each time. In addition, the inhibition at 2 µM in assay [8] was 1.4%.

As for `Cc1ccc(C(=O)C(Cl)Cl)cc1`, the inhibition at 12 µM in assay [1] was determined as 95.7%; in [2], 80%; in assay [4] it was 78.4%. The inhibition at 6 µM in [3] is 33.2%; in [5] it was 54.3%; in [9], 83.1%. Also, in assay [6], the inhibition stood at 19.7%. The results for the inhibition at 2 µM in assay [7] and in assay [10] were 28.6% and 31.2%, respectively. Moreover, the inhibition result in [8] was “inactive”.

`O=C(c1ccccc1F)C(Cl)Cl`: the results for the inhibition at 12 µM in [1] and in assay [2] were 48.6% and 13.6%, respectively. In addition, the figures for the inhibition at 6 µM in [3] and in assay [9] were 10.1% and 12.8%, respectively. Also, the inhibition result in [4], in [5], in assay [6], in assay [8] and in assay [10] was “inactive” each time. Besides, the inhibition at 2 µM in [7] amounted to 4.4%.

Turning to `O=C(c1ccccc1I)C(Cl)Cl`, the inhibition at 12 µM in assay [1] amounted to 96.5%; in assay [2] it was 41.2%; in [4] it was 99.4%. The inhibition at 6 µM in assay [3] amounted to 7.8%; in [5] it was 57.1%; in assay [9], 90.8%. Further, the inhibition result in [6] and in [8] was “inactive” each time. Besides, the inhibition at 2 µM in [7] turned out to be 28.6%; in assay [10], 21%.

On to `O=C(c1ccc(Cl)c(Cl)c1)C(Cl)Cl`, for which the values for the inhibition at 12 µM in [1], in [2] and in [4] were 98.4%, 96.7% and 100%, respectively. The inhibition at 6 µM in [3] was determined as 74.5%; in assay [5], 92.7%; in assay [9], 95.8%. Further, in assay [6], the inhibition entry was “inactive”. Also, the inhibition at 2 µM in assay [7] turned out to be 74.1%; in assay [8], 42.1%; in assay [10] it was 54%.
